Assay results: patent US20140163050A1, “Use of 1H-quinazoline-2,4-diones” (priority 2011, published 2014)
“And” between values parts separate entries of the source, which are not always exact repeats. Equal values may be shown once. “Also recorded” adds a separate entry of the source.

Tested on: patients with PSE
Experiment: IPS/PPR proof of concept study: suppression of PPR or reduction of SPR after single oral doses
Format: in vivo, human
Design: key to Maximum reduction of SPR: Overall reduction, Median: SPR steps (number of frequencies eliciting PPR), range 0-14
Settings: for duration of maintained suppression of PPR: 2 individual patients; for PD effect of C7 / Effect maintained: reduction of SPR (≧3) / Effect maintained: suppression of PPR / Onset Time of reduction of SPR (≧3) / Onset Time of suppression of PPR: individual patients
Method: In patients with photosensitive epilepsy, a standardized photoparoxysmal response range (SPR) may be determined by performing the IPS with a standardized series of flash frequencies, for instance 14 frequencies from a range of 2 to 60 Hz. SPR is a dimensionless parameter and is defined as the number of frequencies (steps) between the lowest and highest frequencies, e.g. between 2 and 60 Hz, that consistently elicit a PPR. If 14 frequencies are tested, the minimum and maximum possible SPR values are 0 and 14. Zero means complete abolition of reactivity on any stimulation frequency, i.e. complete abolishment of the PPR. SPR is relatively stable for each patient and reflects the liability for seizures in daily life. The potential efficacy of an AED could be assessed by measuring hourly changes in the SPR after a single oral dose given to the PSE patients.
The study used the IPS/PPR paradigm. It was a multicenter, non-randomized, single blind, within-subject, placebo-controlled proof of concept study conducted to assess the effect of single oral doses of the compounded formula C-7 in suppressing the photoparoxysmal response (PPR) or reducing the standardized photoparoxysmal response range (SPR) in patients with PSE. Photosensitivity was detected using electroencephalography (EEG) measurements of subjects exposed to Intermittent Photic Stimulation (IPS). This EEG response was a photoparoxysmal response (PPR). For the purpose of the study, provocation of PPRs by IPS, not of seizures, was required. The SPR of each patient was the number of standard visual stimulation frequencies (in Hertz) that the patient was sensitive to, between the lower and upper thresholds. 14 frequencies were tested (from 2 to 60 Hertz). The time of onset and the duration of response (PPR suppression or SPR reduction) to the treatment with Compound C-7 in patients with PSE and the maximal reduction in SPR in patients with PSE were also evaluated.
Women of child-bearing potential (WOCBP) were asked to use acceptable methods of contraception. Patients with an SPR value of 3 or less at the screening and patients with no consistent PPR (less than 3 SPR steps difference between the two evaluations required) when stimulated by intermittent photic stimulation (IPS), as determined by comparison between screening and pre-dose Day 1, were excluded from the study. Furthermore subjects with history of status epilepticus and/or regular use of benzodiazepines as rescue medication, subjects with evidence or history of any medically significant cardiac, respiratory, hepatic, gastrointestinal, renal, hematologic, oncologic or progressive neurological disorder, requiring current medical intervention/therapy likely to have a significant impact on the outcome of this study, were also excluded.
There were three periods: a screening period for the assessment of patient's eligibility for participation in the study; a 3-day in hospital treatment period with single-blind dosing with placebo on days 1 and 3, and the compound of formula C-7 on day 2; and a study completion period consisting of a follow-up call by the medical investigator to the patient between day 10 and day 14 inclusive and a full study completion visit between day 29 and day 33 inclusive.
The dose of the compound of formula C-7 in Cohort studies I, II and III was 50, 100 and 15 mg respectively.

SMILES: CC(C)c1cc2[nH]c(=O)n(NS(C)(=O)=O)c(=O)c2cc1-c1ccnn1C [Compound C-7, N-[7-Isopropyl-6-(2-methyl-2H-pyrazol-3-yl)-2,4-dioxo-1,4-dihydro-2H-quinazolin-3-yl]-methanesulfonamide]
- magnitude of the post-treatment effect between doses (15, 50, 100 mg): dose dependent
- PD effect compared to C-7 50 and 100 mg dose groups (C-7 15 mg dose group): numerically markedly lower PD effect; also recorded: numerically lower but still measurable PD effect
- proportion of subjects with suppression of PPR (C-7 15 mg dose group): 33%
- patients with complete suppression of PPR (C-7 15 mg dose group (Cohort III), Day 2): 1 out of 3 and 1 of 3
- maintenance of SPR response and PPR suppression (C-7 15 mg group): none of the patients maintained the SPR response; also recorded: neither the SPR response nor suppression of PPR was maintained
- onset of suppression of PPR post dosing (C-7 15 mg group, one patient, eye open only, not maintained): 2 h
- Maximum reduction of SPR: Overall reduction, Mean (SD) (C-7 15 mg, eye closed, n=3): 6.7 (1.15)
- Maximum reduction of SPR: Overall reduction, Median (C-7 15 mg, eye closed, n=3): 6.0
- Maximum reduction of SPR: Reduction from predose Day 2, Mean (SD) (C-7 15 mg, eye closed, n=3): 5.0 (3.61)
- Maximum reduction of SPR: Reduction from predose Day 2, Median (C-7 15 mg, eye closed, n=3): 6.0
- Maximum reduction of SPR: Overall reduction, Mean (SD) (C-7 15 mg, eye closure, n=3): 8.0 (1.73)
- Maximum reduction of SPR: Overall reduction, Median (C-7 15 mg, eye closure, n=3): 9.0
- Maximum reduction of SPR: Reduction from predose Day 2, Mean (SD) (C-7 15 mg, eye closure, n=3): 7.3 (2.89)
- Maximum reduction of SPR: Reduction from predose Day 2, Median (C-7 15 mg, eye closure, n=3): 9.0
- Maximum reduction of SPR: Overall reduction, Mean (SD) (C-7 15 mg, eyes open, n=3): 4.0 (3.46)
- Maximum reduction of SPR: Overall reduction, Median (C-7 15 mg, eyes open, n=3): 2.0
- Maximum reduction of SPR: Reduction from predose Day 2, Mean (SD) (C-7 15 mg, eyes open, n=3): 3.0 (4.36)
- Maximum reduction of SPR: Reduction from predose Day 2, Median (C-7 15 mg, eyes open, n=3): 1.0
- AUECt on Day 2 compared to Day 1 (C-7 50 mg and 100 mg dose groups, all eye conditions): significantly lower
- proportion of subjects with suppression of PPR (C-7 50 mg dose group): 50%
- patients with complete suppression of PPR (C-7 50 mg dose group (Cohort I), Day 2): 3 of 6
- patients with reductions of the SPR range by at least 3 steps in at least one eye condition (C-7 50 mg dose group (Cohort I, 6 patients), Day 2): 6 patients
- duration of maintained suppression of PPR (C-7 50 mg group): 2 h and 7 h
- Maximum reduction of SPR: Overall reduction, Mean (SD) (C-7 50 mg, eye closed, n=6): 6.0 (2.37)
- Maximum reduction of SPR: Overall reduction, Median (C-7 50 mg, eye closed, n=6): 6.0
- Maximum reduction of SPR: Reduction from predose Day 2, Mean (SD) (C-7 50 mg, eye closed, n=6): 5.0 (2.00)
- Maximum reduction of SPR: Reduction from predose Day 2, Median (C-7 50 mg, eye closed, n=6): 5.0
- Maximum reduction of SPR: Overall reduction, Mean (SD) (C-7 50 mg, eye closure, n=6): 7.7 (3.01)
- Maximum reduction of SPR: Overall reduction, Median (C-7 50 mg, eye closure, n=6): 8.5
- Maximum reduction of SPR: Reduction from predose Day 2, Mean (SD) (C-7 50 mg, eye closure, n=6): 6.5 (2.95)
- Maximum reduction of SPR: Reduction from predose Day 2, Median (C-7 50 mg, eye closure, n=6): 7.5
- Maximum reduction of SPR: Overall reduction, Mean (SD) (C-7 50 mg, eyes open, n=6): 6.8 (2.99)
- Maximum reduction of SPR: Overall reduction, Median (C-7 50 mg, eyes open, n=6): 7.5
- Maximum reduction of SPR: Reduction from predose Day 2, Mean (SD) (C-7 50 mg, eyes open, n=6): 4.8 (3.43)
- Maximum reduction of SPR: Reduction from predose Day 2, Median (C-7 50 mg, eyes open, n=6): 6.5
- proportion of subjects with suppression of PPR (C-7 100 mg dose group): 75%
- time to maximum reduction of SPR compared to the other 2 dose groups (C-7 100 mg dose group): shorter
- patients with complete suppression of PPR (C-7 100 mg dose group (Cohort II), Day 2): 3 out of 4 and 3 of 4
- duration of maintained suppression of PPR (C-7 100 mg group): 4 h and 3 h
- Maximum reduction of SPR: Overall reduction, Mean (SD) (C-7 100 mg, eye closed, n=4): 7.5 (2.38)
- Maximum reduction of SPR: Overall reduction, Median (C-7 100 mg, eye closed, n=4): 8.5
- Maximum reduction of SPR: Reduction from predose Day 2, Mean (SD) (C-7 100 mg, eye closed, n=4): 6.5 (2.38)
- Maximum reduction of SPR: Reduction from predose Day 2, Median (C-7 100 mg, eye closed, n=4): 6.5
- Maximum reduction of SPR: Overall reduction, Mean (SD) (C-7 100 mg, eye closure, n=4): 9.3 (2.22)
- Maximum reduction of SPR: Overall reduction, Median (C-7 100 mg, eye closure, n=4): 10.0
- Maximum reduction of SPR: Reduction from predose Day 2, Mean (SD) (C-7 100 mg, eye closure, n=4): 8.3 (1.50)
- Maximum reduction of SPR: Reduction from predose Day 2, Median (C-7 100 mg, eye closure, n=4): 9.0
- Maximum reduction of SPR: Overall reduction, Mean (SD) (C-7 100 mg, eyes open, n=4): 8.8 (2.50)
- Maximum reduction of SPR: Overall reduction, Median (C-7 100 mg, eyes open, n=4): 8.5
- Maximum reduction of SPR: Reduction from predose Day 2, Mean (SD) (C-7 100 mg, eyes open, n=4): 7.0 (1.41)
- Maximum reduction of SPR: Reduction from predose Day 2, Median (C-7 100 mg, eyes open, n=4): 6.5
- maximum duration of maintenance of suppression of PPR (C-7 50 and 100 mg dose groups): 7 h
- duration of maintained SPR response (maximum duration of maintenance) (C-7 50 and 100 mg dose groups, patients staying in responding status): 33 h
- PD effect of C7 (Cohort I, C-7 50 mg single oral dose): Suppression of PPR^e; also recorded: Reduction of SPR (≧3)
- Effect maintained: reduction of SPR (≧3) (Cohort I, C-7 50 mg): No (4×) and Yes (2×)
- Effect maintained: suppression of PPR (Cohort I, C-7 50 mg): No (2×) and Yes (2×)
- Onset Time of reduction of SPR (≧3) (Cohort I, C-7 50 mg): 2 h (2×) and 1 h (3×)
- Onset Time of suppression of PPR (Cohort I, C-7 50 mg): 2 h and 3 h and 4 h
- PD effect of C7 (Cohort II, C-7 100 mg single oral dose): Suppression of PPR; also recorded: Reduction of SPR (≧3)
- Effect maintained: reduction of SPR (≧3) (Cohort II, C-7 100 mg): No (3×) and Yes
- Effect maintained: suppression of PPR (Cohort II, C-7 100 mg): Yes (2×) and No
- Onset Time of reduction of SPR (≧3) (Cohort II, C-7 100 mg): 1 h (3×) and 2 h
- Onset Time of suppression of PPR (Cohort II, C-7 100 mg): 2 h (2×) and 3 h
- PD effect of C7 (Cohort III, C-7 15 mg single oral dose): Suppression of PPR^e; also recorded: Reduction of SPR (≧3)
- Effect maintained: reduction of SPR (≧3) (Cohort III, C-7 15 mg): No
- Effect maintained: suppression of PPR (Cohort III, C-7 15 mg): No
- Onset Time of reduction of SPR (≧3) (Cohort III, C-7 15 mg): 1 h
- Onset Time of suppression of PPR (Cohort III, C-7 15 mg): 2 h
- patients with reductions of the SPR range by at least 3 steps in at least one eye condition (Cohorts II and III (100 mg and 15 mg, 7 patients), Day 2): 7 patients
- patients who showed suppression of PPR (Table 2 count) (all dose groups, 13 patients, includes suppression noted already at 0 hours): 9 patients
- patients with complete suppression of PPR (all three dose groups (15, 50, 100 mg)): 7 of the 13 and 7 of 13
- impact of concomitant treatment with selected AEDs on the PD effect of C-7 (valproate, lamotrigine, levetiracetam, topiramate, zonisamide as concomitant AEDs): did not appear to relevantly impact the PD effect
